Laboratory results taken from patent US20140066394A1, “Substituted 6-(Benzylamino) Purine Riboside Derivatives, Use Thereof and Compositions Containing These Derivatives” (Biopatterns, S.R.O, priority 2009, published 2014).

Legend:
[1] = tested on: human umbilical vein endothelial cells (HUVEC); test: Neutrophil mediated damage to endothelial cells (HUVEC viability, trypan blue); assay type: cell-based; set-up: death of HUVEC treated with TNF-primed neutrophils: dose or concentration left out as unconfirmed
Experimental: HUVEC were cultured to confluence in tissue culture plates and incubated overnight with neutrophils treated with 20 ng/ml TNFα (+TNF),
[…] Viable cells remain attached to the plastic wells and are visualised by phase contrast light microscopy. The image shown is representative of 3 separate experiments.
(§1) ANCA are predominantly IgG autoantibodies directed against constituents of primary granules of neutrophils (PR3 and MPO). ANCA associated vasculitis is the most common primary systemic small-vessel vasculitis in adults. The common pathology of this disease is focal necrotizing lesions of blood vessels and may affect different vessels and organs. […] Neutrophils were cultured for 10 hours in RPMI1640 medium containing 2% human AB serum, 2 mM L-glutamine and antibiotics (100 U/ml penicillin, […] streptomycin) and their apoptosis determined by staining with Giemsa stain and observing an apoptotic morphology by light microscopy. […] The ability of compound 10 to inhibit ANCA-induced neutrophil inflammatory functions was also determined Neutrophils were cultured in RPMI1640 medium containing 2% human AB serum, 2 mM L-glutamine and antibiotics (100 U/ml penicillin, […] streptomycin). […] ANCA stimulated degranulation of neutrophils was assessed by release of myeloperoxidase in to the medium over a 30 minute period, with MPO measured by ELISA. […]

[2] = tested on: neutrophils; test: ANCA-induced neutrophil superoxide generation, lucigenin based assay; assay type: cell-based, human; conditions: single concentration 10 μM, 10 minute period (FIG. 11)
Experimental: FIG. 11 Inhibition of ANCA induced neutrophil ROS production by compound 10. Neutrophils were cultured at 2×10^6 cells/ml in RPMI1640 medium containing human serum antibiotics and 20 ng/ml TNFα for 10 minutes prior to addition of ANCA and a range of concentrations of compound 10. Generation of superoxide was determined over a 10 minute period using a lucigenin based assay. The area under the curve was calculated to give superoxide generation over the whole assay period.
as §1, with “adults.” for “adults. The common pathology of this disease is focal necrotizing lesions of blood vessels and may affect different vessels and organs.”

[3] = tested on: neutrophils; test: ANCA induced neutrophil apoptosis; assay type: cell-based; conditions: Homo sapiens, 10 hours, TNFα pre-treated, anti-PR3 and anti-MPO ANCA (FIG. 9), read-out: IC50 for overcoming the increase in apoptosis imposed by ANCA
Experimental: Neutrophils were cultured at 2×10^6 cells/ml for 10 h in RPMI1640 medium containing human serum and antibiotics and a range of concentrations of compound 10 in the absence or presence of ANCA. Apoptosis was determined by flow cytometry after DiOC6 staining.
ANCA are predominantly IgG autoantibodies directed against constituents of primary granules of neutrophils (PR3 and MPO). ANCA associated vasculitis is the most common primary systemic small-vessel vasculitis in adults. The common pathology of this disease is focal necrotizing lesions of blood vessels and may affect different vessels and organs. […] Neutrophils were cultured for 10 hours in RPMI1640 medium containing 2% human AB serum, 2 mM L-glutamine and antibiotics (100 U/ml penicillin, […] streptomycin) and their apoptosis determined by staining with Giemsa stain and observing an apoptotic morphology by light microscopy. […] The ability of compound 10 to inhibit ANCA-induced neutrophil inflammatory functions was also determined Neutrophils were cultured in RPMI1640 medium containing 2% human AB serum, 2 mM L-glutamine and antibiotics (100 U/ml penicillin, […] streptomycin). […] ANCA stimulated degranulation of neutrophils was assessed by release of myeloperoxidase in to the medium over a 30 minute period, with MPO measured by ELISA. […] HUVEC viability was determined by trypan blue staining and light microscopy.

COc1cccc(CNc2nc(Cl)nc3c2ncn3C2OC(CO)C(O)C2O)c1O (stereo not shown) [Compound 10, 2-Chloro-6-(2-hydroxy-3-methoxybenzylamino)purine riboside]
HUVEC cell death in the presence of ANCA ([1]; ANCA-activated TNF primed-neutrophils, 24 h (90% without compound)): 50%
death of HUVEC treated with TNF-primed neutrophils ([1]; overnight / 24 h, without ANCA): completely block the death of HUVEC
ANCA-induced superoxide generation [2]: completely inhibited ANCA-induced superoxide generation
IC50 [3]: 4 µM
